Laboratory results reported in patent US20050239757A1, “Hormone treatment of macular degeneration” (priority 2004, published 2005).
Several values for one entry are separate records, joined by “and”; a condition that tells them apart may be missing. Equal entries are not always repeated.

B1: myelin basic protein (protein, UniProt P02686 1-304, looked up)
Myelin basic protein: MGNHAGKRELNAEKASTNSETNRGESEKKRNLGELSRTTSEDNEVFGEADANQNNGTSSQDTAVTDSKRTADPKNAWQDAHPADPGSRPHLIRLFSRDAPGREDNTFKDRPSESDELQTIQEDSAATSESLDVMASQKRPSQRHGSKYLATASTMDHARHGFLPRHRDTGILDSIGRFFGGDRGAPKRGSGKDSHHPARTAHYGSLPQKSHGRTQDENPVVHFFKNIVTPRTPPPSQGKGRGLSLSRFSWGAEGQRPGFGYGGRASDYKSAHKGFKGVDAQGTLSKIFKLGGRDSRSGSPMARR

Experiments:
[1] = tested on: serum anti-estrogen IgG antibodies; assay: Competition ELISA: absorption of serum IgG anti-estrogen with specific and non-specific antigens; assay type: binding, human; details: for Absorption of serum IgG antibodies, in words: antigen added to the liquid phase; for Serum anti-estrogen IgG level after absorption / Percent inhibition after absorption (IgG): antigen 250 μg/mL; for Serum anti-estrogen IgG level after absorption: optical density at 405 nm; for Inhibition of anti-estrogen binding to estrogen (IgG), range over samples: antigen in liquid phase, Table 2
Protocol: (§1) Enzyme-linked immunosorbent assay (ELISA) was used for testing antibodies against estrogen and progesterone in the sera of patients with premenstrual asthma and with control subjects. […] Plates were incubated overnight at 4° C. and then washed three times with […] of Tris-buffered saline (TBS) containing 0.05% Tween 20, pH 7.4. […] Plates were incubated for 2 h (for IgG and IgM) and overnight (for IgE), and then washed four times with PBS-Tween 20. Alkaline-phosphatase-conjugated goat anti-human IgG, IgM or IgE F(ab′)2 fragment at optimal dilution of 1:700 (IgG); 1:500 (IgM) and 1:250 (IgE) was added to corresponding wells. The plates were then incubated for an additional 2 h at room temperature. After washing five times with TBS-Tween buffer, the enzyme reaction was started by adding 100 μl of para-nitrophenylphosphate in 0.1 mL of diethanolamine buffer (1 mg/ml) containing 1 mM MgCl2 and sodium azide, pH 9.8. The reaction was stopped 45 minutes later with 50 μl of 1 N NaOH. The optical density was read at 405 nm (OD405) with a microtiter reader.
(§2) 100 μl of serum diluent buffer was added to all wells. […] After a 60-minute incubation, 100 μl serum anti-estrogen or anti-progesterone was added to all wells. […] Results were calculated as a percentage of inhibition in antigen-antibody reaction.
(§3) To examine whether antibodies to estrogen or progesterone are specific or cross-reactive, competition ELISA was performed by adding specific and non-specific antigens in liquid phase and examined prevention of serum antibody binding to the antigen in solid phase. […] This cross-reaction between estrogen and progesterone antibodies may be due to structural similarities between these two hormones.

[2] = tested on: serum anti-estrogen IgE antibodies; assay: Competition ELISA: absorption of serum IgE anti-estrogen with specific and non-specific antigens; assay type: binding, human; details: for Absorption of serum IgE antibodies, in words: antigen added to the liquid phase; for Serum anti-estrogen IgE level after absorption / Percent inhibition after absorption (IgE): antigen 250 μg/mL; for Serum anti-estrogen IgE level after absorption: optical density at 405 nm; for Inhibition of IgE anti-estrogen binding, range over samples: antigen in liquid phase, summary of Table 3
Protocol: as §1, §2, §3

[3] = tested on: macular degeneration; assay: Clinical case: sublingual progesterone in a patient with macular degeneration; assay type: in vivo, human
Protocol: An adult human presented with macular degeneration. They had visual acuity of 20/200 in each eye. After the use of sublingual progesterone, one application, their vision improved to 20/100 and 20/40. […] They were evaluated for hormone allergy therapy by assessing their anti-hormone antibodies and found to have elevated levels of IgE, IgG, and IgM antibodies to progesterone.
The subject then received progesterone 1:10 sublingual drops which they continue to use.

[4] = serum sample 1, before absorption 1.83
[5] = serum sample 2, before absorption 1.25
[6] = serum sample 3, before absorption 0.76
[7] = serum sample 1, before absorption 2.15
[8] = serum sample 2, before absorption 1.66
[9] = serum sample 3, before absorption 1.34

Molecule	Absorption of serum IgG antibodies, in words [1]	Serum anti-estrogen IgG level after absorption [1, 4]	Serum anti-estrogen IgG level after absorption [1, 5]	Serum anti-estrogen IgG level after absorption [1, 6]	Absorption of serum IgE antibodies, in words [2]	Serum anti-estrogen IgE level after absorption [2, 7]	Serum anti-estrogen IgE level after absorption [2, 8]	Serum anti-estrogen IgE level after absorption [2, 9]	Inhibition of anti-estrogen binding to estrogen (IgG), range over samples [1]	Percent inhibition after absorption (IgG) ([1]; serum sample 1)	Percent inhibition after absorption (IgG) ([1]; serum sample 2)	Percent inhibition after absorption (IgG) ([1]; serum sample 3)	Inhibition of IgE anti-estrogen binding, range over samples [2]	Percent inhibition after absorption (IgE) ([2]; serum sample 1)	Percent inhibition after absorption (IgE) ([2]; serum sample 2)	Percent inhibition after absorption (IgE) ([2]; serum sample 3)	Visual acuity after treatment ([3]; adult human female, sublingual, one application, baseline 20/200 in each eye)	Ophthalmologist's assessment ([3]; return visit two weeks later, as reported by the patient)
bovine serum albumin [BSA]	did not absorb	1.79	1.13	0.81	did not absorb	2.24	1.53	1.26	–	–	–	–	–	–	–	–	–	–
En: Estrogen (estradiol) bound to bovine serum albumin, purchased from Sigma; specific antigen in competition ELISA	significantly absorbed	0.61	0.52	0.37	significantly absorbed	0.96	0.77	0.51	52-67%	(67%)	(59%)	(52%)	54-62%	(55%)	(54%)	(62%)	–	–
CC(=O)[C@H]1CC[C@H]2[C@@H]3CCC4=CC(=O)CC[C@]4(C)[C@H]3CC[C@]12C [progesterone]	–	–	–	–	–	–	–	–	–	–	–	–	–	–	–	–	20/100 and 20/40	remarkably improved
Pn: Progesterone bound to bovine serum albumin, purchased from Sigma; antigen in competition ELISA	significantly absorbed	0.87	0.69	0.45	significantly absorbed	1.35	0.98	0.76	41-52%	(52%)	(45%)	(41%)	37-43%	(37%)	–	(43%)	–	–
B1	did not absorb	1.67	1.13	0.68	did not absorb	2.05	1.73	1.11	–	–	–	–	–	–	–	–	–	–
